Structures can show the parent of a compound that is named as a salt.
Key:
[1] = molecular target: PDE10A (UniProt Q9Y233); experiment: Measurement of PDE activity (HTRF cAMP kit, recombinant PDE10A); assay type: biochemical, human, rat and mouse; details: substrate 20 nM, 60 minutes at 29° C.
Experimental: a) Measurement of PDE Activity
The recombinant PDE proteins are used in in vitro enzymatic reaction for measurement of PDE activity. These recombinant proteins, including PDE10A (human, rat and mouse PDE10) and isoforms of PDEs 1, 3, 4, and 5, were purchased from commercial vendor BPS Bioscience. The enzymatic activity of PDEs was determined by cAMP measurement kit from CisBio (IBA) using HTRF technology.
The PDE enzymatic reaction was carried out in assay buffer (20 mM Tris-HCl pH 7.5, 10 mM MgCl2, 0.1% bovine serum albumin) containing enzyme and substrate. […] The substrate cyclic nucleotide (cAMP or cGMP) concentration used in the assay was 20 nM for PDE10, and 100 nM for other PDEs. The inhibitory effect of compound was determined by incubating various concentration of inhibitor in the enzymatic assay. […] Next, the compound at varying concentration was mixed with PDE enzyme. The reaction was initiated by addition of cyclic nucleotide substrate, and incubated for 60 minutes at 29° C. The reaction was stopped by addition of lysis buffer from the assay kit. The cAMP-d2 and anti-cAMP cryptate in the lysis buffer detected the level of cAMP left from the PDE hydrolysis reaction. […] Thus, IC50 value of inhibitor can be obtained by plotting inhibitor concentration against PDE activity at that concentration.

[2] = Determination of the microsomal half-life / microsomal clearance, rat liver microsomes; assay type: in vitro ADME; details: 0.5 μM test substance, 0.25 mg of microsomal protein/mL, NADPH, 37° C.
Experimental: (§1) b) Determination of the Microsomal Half-Life:
(§2) The metabolic stability of the compounds of the invention was determined in the following assay.
(§3) The test substances were incubated in a concentration of 0.5 μM as follows:
(§4) 0.5 μM test substance are preincubated together with liver microsomes from different species (from rat, human or other species) (0.25 mg of microsomal protein/mL) in 0.05 M potassium phosphate buffer of pH 7.4 in microtiter plates at 37° C. for 5 min. The reaction is started by adding NADPH (1 mg/mL). After 0, 5, 10, 15, 20 and 30 min, 50 μl aliquots are removed, and the reaction is immediately stopped and cooled with the same volume of acetonitrile. The samples are frozen until analyzed. The remaining concentration of undegraded test substance is determined by MSMS. The half-life (T½) is determined from the gradient of the signal of test substance/unit time plot, it being possible to calculate the half-life of the test substance, assuming first order kinetics, from the decrease in the concentration of the compound with time. The microsomal clearance (mCl) is calculated from mCl=ln 2/T½/(content of microsomal protein in mg/mL)×1000 [mL/min/mg] (modified from references: Di, The Society for Biomoleculur Screening, 2003, 453-462; Obach, DMD, 1999 vol 27. N 11, 1350-1359).

[3] = Determination of the microsomal half-life / microsomal clearance, human liver microsomes; assay type: in vitro ADME; details: 0.5 μM test substance, 0.25 mg of microsomal protein/mL, NADPH, 37° C.
Experimental: as §1, §2, §3, §4

IC50 [1]	Rat mCl [2]	Human mCl [3]	Structure (SMILES)
< 100 nM			Cn1nc(-c2ccncc2)c2scc(-c3cncnc3)c2c1=O [Example 6, 5-methyl-7-(pyridin-4-yl)-3-(pyrimidin-5-yl)thieno[2,3-d]pyridazin-4(5H)-one]
	++ (++: <100 μl min^−1 mg^−1)	++ (++: <100 μl min^−1 mg^−1)	CN1CCN(Cc2ccc(-c3csc4c(-c5ccncc5)nn(C)c(=O)c34)cc2)CC1.O=C(O)C(F)(F)F.O=C(O)C(F)(F)F.O=C(O)C(F)(F)F [Example 43, 5-methyl-3-{4-[(4-methylpiperazin-1-yl)methyl]phenyl}-7-(pyridin-4-yl)thieno[2,3-d]pyridazin-4(5H)-one tris(trifluoroacetate)]
	+ (+: 100-220 μl min^−1 mg^−1)	+ (+: 100-220 μl min^−1 mg^−1)	Cn1nc(N2CCCCC2)c2scc(-c3ccncc3)c2c1=O [Example 47, 5-methyl-7-(piperidin-1-yl)-3-(pyridin-4-yl)thieno[2,3-d]pyridazin-4(5H)-one]
	++ (++: <100 μl min^−1 mg^−1)	++ (++: <100 μl min^−1 mg^−1)	CN1CCN(c2nn(C)c(=O)c3c(-c4ccncc4)csc23)CC1 [Example 49, 5-methyl-7-(4-methylpiperazin-1-yl)-3-(pyridin-4-yl)thieno[2,3-d]pyridazin-4(5H)-one]
	+ (+: 100-220 μl min^−1 mg^−1)	++ (++: <100 μl min^−1 mg^−1)	Cn1nc(OC2CCCCC2)c2scc(-c3ccncc3)c2c1=O.O=C(O)C(F)(F)F [Example 53, 7-(cyclohexyloxy)-5-methyl-3-(pyridin-4-yl)thieno[2,3-d]pyridazin-4(5H)-one trifluoroacetate]
200 to 500 nM			Cn1ccnc1COc1nn(C)c(=O)c2c(-c3ccncc3)csc12 [Example 56, 5-methyl-7-[(1-methyl-1H-imidazol-2-yl)methoxy]-3-(pyridin-4-yl)thieno[2,3-d]pyridazin-4(5H)-one]
	+ (+: 100-220 μl min^−1 mg^−1)	+ (+: 100-220 μl min^−1 mg^−1)	Cn1nc(OCC2CCCCC2)c2scc(-c3ccncc3)c2c1=O [Example 57, 7-(cyclohexylmethoxy)-5-methyl-3-(pyridin-4-yl)thieno[2,3-d]pyridazin-4(5H)-one]
200 to 500 nM			Cn1nc(OC2Cc3ccccc3C2)c2scc(-c3ccncc3)c2c1=O [Example 60, 7-(2,3-dihydro-1H-inden-2-yloxy)-5-methyl-3-(pyridin-4-yl)thieno[2,3-d]pyridazin-4(5H)-one trifluoroacetate]
	++ (++: <100 μl min^−1 mg^−1)	++ (++: <100 μl min^−1 mg^−1)	Cn1nc(OCC2CCC(F)(F)CC2)c2scc(-c3ccncc3)c2c1=O [Example 66, 7-[(4,4-difluorocyclohexyl)methoxy]-5-methyl-3-(pyridin-4-yl)thieno[2,3-d]pyridazin-4(5H)-one]
< 100 nM			Cn1nc(OCc2nc3ccccc3s2)c2scc(-c3ccncc3)c2c1=O [Example 71, 7-(1,3-benzothiazol-2-ylmethoxy)-5-methyl-3-(pyridin-4-yl)thieno[2,3-d]pyridazin-4(5H)-one trifluoroacetate]
	++ (++: <100 μl min^−1 mg^−1)	+ (+: 100-220 μl min^−1 mg^−1)	Cn1nc(OCc2ccc(Cl)c(Cl)c2)c2scc(-c3ccncc3)c2c1=O [Example 77, 7-[(3,4-dichlorobenzyl)oxy]-5-methyl-3-(pyridin-4-yl)thieno[2,3-d]pyridazin-4(5H)-one]
	+ (+: 100-220 μl min^−1 mg^−1)	+ (+: 100-220 μl min^−1 mg^−1)	Cn1nc(OCC2CCN(C(=O)OC(C)(C)C)CC2)c2scc(-c3ccncc3)c2c1=O [Example 79, tert-butyl 4-({[5-methyl-4-oxo-3-(pyridin-4-yl)-4,5-dihydrothieno[2,3-d]pyridazin-7-yl]oxy}methyl)piperidine-1-carboxylate]
	++ (++: <100 μl min^−1 mg^−1)	++ (++: <100 μl min^−1 mg^−1)	Cn1nc(OCc2ccc3c(c2)CN(C(=O)OC(C)(C)C)C3)c2scc(-c3ccncc3)c2c1=O [Example 80, tert-butyl 5-({[5-methyl-4-oxo-3-(pyridin-4-yl)-4,5-dihydrothieno[2,3-d]pyridazin-7-yl]oxy}methyl)-1,3-dihydro-2H-isoindole-2-carboxylate]
< 100 nM			Cc1cnc(Cl)c(Oc2nn(C)c(=O)c3c(-c4ccncc4)csc23)c1 [Example 90, 7-[(2-chloro-5-methylpyridin-3-yl)oxy]-5-methyl-3-(pyridin-4-yl)thieno[2,3-d]pyridazin-4(5H)-one trifluoroacetate]
	++ (++: <100 μl min^−1 mg^−1)	++ (++: <100 μl min^−1 mg^−1)	Cn1nc(-c2ccccc2C(N)=O)c2scc(-c3ccncc3)c2c1=O [Example 98, 2-[5-methyl-4-oxo-3-(pyridin-4-yl)-4,5-dihydrothieno[2,3-d]pyridazin-7-yl]benzamide]
	++ (++: <100 μl min^−1 mg^−1)	++ (++: <100 μl min^−1 mg^−1)	Cn1nc(-c2ccc(OC(F)(F)F)cc2)c2scc(-c3ccncc3)c2c1=O [Example 101, 5-methyl-3-(pyridin-4-yl)-7-[4-(trifluoromethoxy)phenyl]thieno[2,3-d]pyridazin-4(5H)-one]
	++ (++: <100 μl min^−1 mg^−1)	++ (++: <100 μl min^−1 mg^−1)	Cn1nc(OCC2CCNCC2)c2scc(-c3ccncc3)c2c1=O.O=C(O)C(F)(F)F [Example 125, 5-methyl-7-(piperidin-4-ylmethoxy)-3-(pyridin-4-yl)thieno[2,3-d]pyridazin-4(5H)-one bis(trifluoroacetate)]
	++ (++: <100 μl min^−1 mg^−1)	++ (++: <100 μl min^−1 mg^−1)	N#Cc1cccc(-c2csc3c(-c4ccncc4)nn(CC(F)(F)F)c(=O)c23)c1 [Example 129, 3-[4-oxo-7-(pyridin-4-yl)-5-(2,2,2-trifluoroethyl)-4,5-dihydrothieno[2,3-d]pyridazin-3-yl]benzonitrile]
	++ (++: <100 μl min^−1 mg^−1)	+ (+: 100-220 μl min^−1 mg^−1)	CC(C)(C)n1nc(-c2ccncc2)c2scc(-c3ccncc3)c2c1=O [Example 132, 5-tert-butyl-3,7-di(pyridin-4-yl)thieno[2,3-d]pyridazin-4(5H)-one]
	++ (++: <100 μl min^−1 mg^−1)	+ (+: 100-220 μl min^−1 mg^−1)	O=c1c2c(-c3ccncc3)csc2c(-c2ccncc2)nn1CC1CCCO1 (stereo not drawn) [Example 141, 3,7-di(pyridin-4-yl)-5-(tetrahydrofuran-2-ylmethyl)thieno[2,3-d]pyridazin-4(5H)-one]

Structure (SMILES)	IC50 [1]	Rat mCl [2]	Human mCl [3]
CC(C)c1cccc(COc2nn(C)c(=O)c3c(-c4ccncc4)csc23)c1.O=C(O)C(F)(F)F [Example 65, 5-methyl-7-{[3-(propan-2-yl)benzyl]oxy}-3-(pyridin-4-yl)thieno[2,3-d]pyridazin-4(5H)-one trifluoroacetate]		+ (+: 100-220 μl min^−1 mg^−1)	∘ (∘ not avialable or >220 μl min^−1 mg^−1)
O=c1c2c(-c3ccncc3)csc2c(-c2ccncc2)nn1C1CCCC1 [Example 134, 5-cyclopentyl-3,7-di(pyridin-4-yl)thieno[2,3-d]pyridazin-4(5H)-one]		+ (+: 100-220 μl min^−1 mg^−1)	∘ (∘ not avialable or >220 μl min^−1 mg^−1)
